The values that follow come from patent US20250009696A1, “METHODS OF CANCER TREATMENT VIA REGULATED FERROPTOSIS” (Memorial Sloan Kettering Cancer Center, priority 2017, published 2025).

Test [1] is described as follows: Computational analysis of cell death spreading (time-lapse microscopy, random trials). The conditions noted are these: experimentally-induced apoptosis; cell line not stated. In kind it is cell-based. The protocol: Nuclei are circled and color-coded to represent the relative timing of cell death, determined by time-lapse microscopy. The relative positioning of cell deaths occurring in successive frames of a time-lapse movie are calculated by measuring the distance between newly occurring deaths and their nearest neighbor of any previous deaths, for example death 2 to death 1, or distance a. The mean distance of all deaths in a movie is calculated as distances (a+b+c+ . . . +n)/n.
It was observed that ferroptosis involves the spreading of cell death between adjacent cells in cell culture in wave-like or synchronous patterns. […] To study cell death spreading, a computational analysis was designed that allows for quantification of the random or non-random nature of observed patterns of cell death in a population. As shown in FIGS. 2A-2D, this analysis utilizes time-lapse microscopic imaging of cell death, for cells cultured in the presence of Sytox green or Sytox orange dyes (or propidium iodide), which enter the nucleus of necrotic cells and emit green or red fluorescence (FIG. 2A). […] In addition to the actual data set calculated for each field of view, randomized trials are then also performed 1000 times for each microscopic field, to generate a random set of possible mean distances that account for the particular arrangements of cells in each field (FIG. 2B). […]

In test [2] the test system is PC-3 prostate cancer cells. Put plainly: Western blot of PSMA and AR expression after enzalutamide exposure in vitro. The test is classed as cell-based. The conditions noted are these: 10 μM for 15 days. Background: Immunoblotting shows a protein as a band on a membrane.
Test [3] has as its system LNCAP xenografts. Put plainly: PSMA expression in xenografts after daily enzalutamide. The following applies: 10 mg/kg/day, oral gavage. The test is classed as in vivo, mice.
Test [4] deals with LNCAP-AR prostate cancer cells. Put plainly: Western blot of PSMA and AR expression after enzalutamide exposure in vitro. In kind it is cell-based. The following applies: 10 μM over 15 days.
Test [5] relates to LNCAP prostate cancer cells. Described as above. In kind it is cell-based. The conditions noted are these: 10 μM continuously for 15 days. The source says: At the conclusion of exposure, cells were collected and the expression levels of PSMA and AR were examined via Western blot.
Test [6] deals with HT1080 cells. Put plainly: Cell rupture in response to other inducers of ferroptosis with osmoprotectants. The following applies: necrotic cell death induced by hydrogen peroxide, FIG. 1F. The test is classed as cell-based. From the text: (§1) The use of osmo-protectants (FIG. 1B) of increasing sizes can indicate the presence of pores in the membrane that would be required for cell rupture.

Test [7] relates to cells treated with FAC and BSO. Put plainly: Spreading of ferroptosis, cell rounding and calcium signal with inhibitors or osmoprotectants. In kind it is cell-based. The protocol:
FIG. 3A depicts images that show cell colony prior to (left) and 12 hours after (right) treatment with liproxstatin-1. Note cell death involving wave-like spreading that was induced by FAC and BSO, and started prior to liproxstatin-1 addition, was inhibited, as cells that were alive (bottom right half of colony) stayed alive for 12 hours.
Right images show computational quantifications of the spreading of cell rounding (top), which remains significant in the presence of PEG1450 (***P=0.004) (see histogram, bottom). Cells are pseudocolored in top image to represent the relative timing of cell rounding.
Relative times are shown as minutes (min).
It was observed that ferroptosis involves a pore-forming activity and, also, a spreading activity. […] As cell rounding or swelling may be associated with calcium influx into cells, cells expressing the genetically-encoded calcium sensor GCaMP, which emits GFP fluorescence upon calcium exposure, were treated with FAC and BSO to induce ferroptosis in the presence of PEG3350.

In test [8] the test system is cells treated with FAC and BSO. Put plainly: Cell swelling and cell lysis (LDH release) in FAC and BSO-induced ferroptosis. In kind it is cell-based. The following applies: for cell lysis / cell rupture (release of lactate dehydrogenase, LDH): 48 hours of treatment with FAC and BSO (400 μM), osmoprotectant 30 mM. How it is done:
The effect on cell lysis is shown by reduced release of lactate dehydrogenase (LDH), a measure of necrosis.
To investigate if the ferroptotic rupture of cells might be an event that is regulated by a pore, experiments were performed with osmo-protectants in the cell culture medium. Osmo-protectants are large osmolytes that when added to sufficient concentrations outside of cells (30 mM), buffer potential ion imbalances caused by pore formation that would otherwise lead to membrane rupture. The loss of ion and small molecule balances across the plasma membrane due to the opening of a pore would lead to hypo-osmotic stress due to the large molecules and organelles that cannot cross the intact membrane.
as §1

Consider `C[C@@H]1C[C@@H]([C@H](O)CC2CC(=O)NC(=O)C2)C(=O)[C@@H](C)C1` [cyclohexamide], for which, in test [1], the “observed mean distance between cell deaths versus random trials” value is reported as “falls within the random trials”.

In the case of `CNC(=O)c1ccc(N2C(=S)N(c3ccc(C#N)c(C(F)(F)F)c3)C(=O)C2(C)C)cc1F` [enzalutamide], in test [2], the “AR expression (Western blot)” value is listed as “negative for AR across all tested time points” and the “PSMA expression (Western blot)” value is reported as “lack of PSMA expression at all time points”. Also, in test [3], the “PSMA expression in LNCAP xenografts” value is listed as “increase in PSMA expression at Day 5” and the “PSMA expression in tumor sections (immunofluorescence staining)” value is listed as “increase in PSMA expression at Day 5”. In test [4], the “AR expression (Western blot)” value was “clear increase in AR expression is observed from Day 3 onward” and the “PSMA expression (Western blot)” value is listed as “time-dependent increase in PSMA expression”. Further, in test [5], the “AR expression (Western blot)” value is “transient increase in AR expression is also observed from Day 7 to Day 10” and the “PSMA expression (Western blot)” value is on record as “increase in PSMA expression occurs on, or around, Day 7 of exposure”.

In the case of `OO` [hydrogen peroxide], the “regulation of necrotic cell death by PEG1450 or PEG3350” value in test [6] is recorded as “did not involve similar regulation”.

Regarding `Clc1cccc(CN=C2Nc3ccccc3NC23CCNCC3)c1` [liproxstatin-1], in test [7] (FAC and BSO (400 μM) in the presence of the named agent), the “spreading of cell rounding / morphological changes” value was “blocked”. The “wave-like spreading of ferroptosis” value in test [7] (FAC and BSO, agent added after initiation of ferroptosis) is “disrupted wave-like spreading”.

As for `COc1nccnc1NS(=O)(=O)c1ccc(NC(=O)/C=C/c2ccc([N+](=O)[O-])s2)cc1` [necrosulfonamide], the ferroptotic cell rupture entry in test [8] (treatment with inhibitor of MLKL) is reported as “did not affect ferroptotic cell rupture”.

As to `OC[C@H]1O[C@H](OC[C@H]2O[C@H](O[C@]3(CO)O[C@H](CO)[C@@H](O)[C@@H]3O)[C@H](O)[C@@H](O)[C@@H]2O)[C@H](O)[C@@H](O)[C@H]1O` [raffinose], the “cell lysis / cell rupture (release of lactate dehydrogenase, LDH)” value in test [8] is “did not”.

`OC[C@H]1O[C@@](CO)(O[C@H]2O[C@H](CO)[C@@H](O)[C@H](O)[C@H]2O)[C@@H](O)[C@@H]1O` [sucrose]: in test [8], the “cell lysis / cell rupture (release of lactate dehydrogenase, LDH)” value was “did not”.
